According to publication PMC5218480 (PLoS ONE, 2017):

System: MV-4-11 cells
Assay: Gene expression microarray analysis (Affymetrix PrimeView) and GSEA
Assay type: cell-based, human
Parameters: RFU PODN (11730768_x_at) / Fold change /veh PODN (11730768_x_at) / RFU LINC00158 (11744669_a_at) / Fold change /veh LINC00158 (11744669_a_at) / RFU DUSP10 (11751237_a_at) / Fold change /veh DUSP10 (11751237_a_at) / RFU ID3 (11757404_x_at) / Fold change /veh ID3 (11757404_x_at) / RFU PLEKHG5 (11737974_s_at) / Fold change /veh PLEKHG5 (11737974_s_at) / RFU LRRC4B (11730491_at) / Fold change /veh LRRC4B (11730491_at) / RFU GIMAP4 (11747438_a_at) / Fold change /veh GIMAP4 (11747438_a_at) / RFU KRT8 (11758183_x_at) / Fold change /veh KRT8 (11758183_x_at) / RFU CNN1 (11734310_a_at) / Fold change /veh CNN1 (11734310_a_at) / RFU VPS37D (11726825_at) / Fold change /veh VPS37D (11726825_at) / RFU C10orf10 (11716522_x_at) / Fold change /veh C10orf10 (11716522_x_at) / RFU KIR2DL2 /// KIR2DL4 /// KIR2DL5A /// KIR2DL5B /// KIR2DS1 /// KIR2DS2 /// KIR2DS3 /// KIR2DS4 /// KIR3DL3 /// KIR3DL3 /// KIR3DS1 (11738374_at) / Fold change /veh KIR2DL2 /// KIR2DL4 /// KIR2DL5A /// KIR2DL5B /// KIR2DS1 /// KIR2DS2 /// KIR2DS3 /// KIR2DS4 /// KIR3DL3 /// KIR3DL3 /// KIR3DS1 (11738374_at) / RFU C1QL1 (11718748_at) / Fold change /veh C1QL1 (11718748_at) / RFU TMPRSS4 (11747572_a_at) / Fold change /veh TMPRSS4 (11747572_a_at) / RFU HAMP (11756126_x_at) / Fold change /veh HAMP (11756126_x_at) / RFU RNFT2 (11725882_a_at) / Fold change /veh RNFT2 (11725882_a_at) / RFU NR4A2 (11747474_a_at) / Fold change /veh NR4A2 (11747474_a_at) / RFU ABCC12 (11746883_a_at) / Fold change /veh ABCC12 (11746883_a_at) / RFU TMEM136 (11760407_x_at) / Fold change /veh TMEM136 (11760407_x_at) / RFU CLDN22 /// WWC2 (11732394_at) / Fold change /veh CLDN22 /// WWC2 (11732394_at) / RFU HLA-DPB1 (11760878_x_at) / Fold change /veh HLA-DPB1 (11760878_x_at) / RFU SPINT1 (11716480_a_at) / Fold change /veh SPINT1 (11716480_a_at) / RFU GAP43 (11754022_s_at) / Fold change /veh GAP43 (11754022_s_at) / RFU A4GNT (11735810_at) / Fold change /veh A4GNT (11735810_at) / RFU PRB3 (11715151_x_at) / Fold change /veh PRB3 (11715151_x_at) / RFU TUBB4B (11761932_at) / Fold change /veh TUBB4B (11761932_at) / RFU CAPN14 (11732068_a_at) / Fold change /veh CAPN14 (11732068_a_at) / RFU TMCC2 (11721928_a_at) / Fold change /veh TMCC2 (11721928_a_at) / RFU IRGQ (11745062_a_at) / Fold change /veh IRGQ (11745062_a_at) / RFU FAM174B (11720279_a_at) / Fold change /veh FAM174B (11720279_a_at) / RFU TMPRSS4 (11748680_a_at) / Fold change /veh TMPRSS4 (11748680_a_at) / RFU FAM212B (11763350_a_at) / Fold change /veh FAM212B (11763350_a_at) / RFU PLEKHG5 (11743358_a_at) / Fold change /veh PLEKHG5 (11743358_a_at) / RFU ZSCAN30 (11745921_a_at) / Fold change /veh ZSCAN30 (11745921_a_at) / RFU CMKLR1 (11741424_a_at) / Fold change /veh CMKLR1 (11741424_a_at) / RFU LOC101060620 /// MAPK8IP1 (11723275_at) / Fold change /veh LOC101060620 /// MAPK8IP1 (11723275_at) / RFU SPTSSB (11747773_x_at) / Fold change /veh SPTSSB (11747773_x_at) / RFU PRSS12 (11739890_at) / Fold change /veh PRSS12 (11739890_at) / RFU BIN1 (11741810_x_at) / Fold change /veh BIN1 (11741810_x_at) / RFU WNT11 (11732464_a_at) / Fold change /veh WNT11 (11732464_a_at) / RFU C10orf10 (11716521_a_at) / Fold change /veh C10orf10 (11716521_a_at) / RFU C5orf56 (11738089_at) / Fold change /veh C5orf56 (11738089_at) / RFU CYB561 (11721691_x_at) / Fold change /veh CYB561 (11721691_x_at) / RFU ANKRD19P (11752326_a_at) / Fold change /veh ANKRD19P (11752326_a_at) / RFU OR2T12 /// OR2T33 /// OR2T8 (11738714_s_at) / Fold change /veh OR2T12 /// OR2T33 /// OR2T8 (11738714_s_at) / RFU VCAN (11748164_a_at) / Fold change /veh VCAN (11748164_a_at) / RFU JSRP1 (11732532_at) / Fold change /veh JSRP1 (11732532_at) / RFU KRTAP10-11 (11738290_x_at) / Fold change /veh KRTAP10-11 (11738290_x_at) / RFU MYO3A (11730013_a_at) / Fold change /veh MYO3A (11730013_a_at) / RFU EBF3 (11725865_a_at) / Fold change /veh EBF3 (11725865_a_at) / RFU CAMK2N1 (11719241_x_at) / Fold change /veh CAMK2N1 (11719241_x_at) / RFU C5orf56 (11738088_a_at) / Fold change /veh C5orf56 (11738088_a_at) / RFU OLFML3 (11715873_a_at) / Fold change /veh OLFML3 (11715873_a_at) / RFU LOC100653217 /// NTM (11731650_a_at) / Fold change /veh LOC100653217 /// NTM (11731650_a_at) / RFU MAPK11 (11762145_a_at) / Fold change /veh MAPK11 (11762145_a_at) / RFU FIZ1 (11724087_x_at) / Fold change /veh FIZ1 (11724087_x_at) / RFU OASL (11726364_x_at) / Fold change /veh OASL (11726364_x_at) / RFU SOX15 (11748057_x_at) / Fold change /veh SOX15 (11748057_x_at) / RFU CD79A (11719716_a_at) / Fold change /veh CD79A (11719716_a_at) / RFU HIST1H1D (11736915_at) / Fold change /veh HIST1H1D (11736915_at) / RFU CASKIN2 (11723855_a_at) / Fold change /veh CASKIN2 (11723855_a_at) / RFU LOC730098 (11760151_x_at) / Fold change /veh LOC730098 (11760151_x_at) / RFU OR4N2 (11742367_at) / Fold change /veh OR4N2 (11742367_at) / RFU PRRT2 (11749266_a_at) / Fold change /veh PRRT2 (11749266_a_at) / RFU SNX32 (11753110_a_at) / Fold change /veh SNX32 (11753110_a_at) / RFU CDHR5 (11726645_a_at) / Fold change /veh CDHR5 (11726645_a_at) / RFU RCAN1 (11760418_a_at) / Fold change /veh RCAN1 (11760418_a_at) / RFU FAM167A (11723789_a_at) / Fold change /veh FAM167A (11723789_a_at) / RFU FAM26E (11764081_at) / Fold change /veh FAM26E (11764081_at) / RFU ISYNA1 (11749810_s_at) / Fold change /veh ISYNA1 (11749810_s_at) / RFU ACY1 (11761880_at) / Fold change /veh ACY1 (11761880_at) / RFU 11764098_at / Fold change /veh 11764098_at / RFU SAMD14 (11745864_x_at) / Fold change /veh SAMD14 (11745864_x_at) / RFU NPB (11741838_a_at) / Fold change /veh NPB (11741838_a_at) / RFU TMPRSS6 (11731388_a_at) / Fold change /veh TMPRSS6 (11731388_a_at) / RFU KRTAP10-2 (11738614_at) / Fold change /veh KRTAP10-2 (11738614_at) / RFU ARHGAP8 /// PRR5-ARHGAP8 (11727945_x_at) / Fold change /veh ARHGAP8 /// PRR5-ARHGAP8 (11727945_x_at) / RFU KRTAP5-7 /// NADSYN1 (11734609_at) / Fold change /veh KRTAP5-7 /// NADSYN1 (11734609_at) / RFU RASL12 (11751679_a_at) / Fold change /veh RASL12 (11751679_a_at) / RFU CDKN2B (11736163_a_at) / Fold change /veh CDKN2B (11736163_a_at) / RFU PRF1 (11729649_at) / Fold change /veh PRF1 (11729649_at) / RFU, ZNF638 /// ZNF638-IT1 / Fold change vs veh, ZNF638 /// ZNF638-IT1 / RFU, PANK3 / Fold change vs veh, PANK3 / RFU, SH3YL1 / Fold change vs veh, SH3YL1 / RFU, ZEB2 / Fold change vs veh, ZEB2 / RFU, NRIP1 / Fold change vs veh, NRIP1 / RFU, PTTG1IP / Fold change vs veh, PTTG1IP / RFU, CAPN2 / Fold change vs veh, CAPN2 / RFU, MED14 / Fold change vs veh, MED14 / RFU, SNORA58 / Fold change vs veh, SNORA58 / RFU, C1orf63 / Fold change vs veh, C1orf63 / RFU, LRRFIP1 / Fold change vs veh, LRRFIP1 / RFU, NDUFAF7 / Fold change vs veh, NDUFAF7 / RFU, SLC12A2 / Fold change vs veh, SLC12A2 / RFU, IBTK / Fold change vs veh, IBTK / RFU, ESF1 / Fold change vs veh, ESF1 / Fold change vs veh, TMEM50B / RFU, TAOK1 / Fold change vs veh, TAOK1 / RFU, ACBD3 / Fold change vs veh, ACBD3 / RFU, TMA16 / Fold change vs veh, TMA16 / RFU, RWDD3 / Fold change vs veh, RWDD3 / RFU, BCAT1 / Fold change vs veh, BCAT1 / RFU, EDEM3 / Fold change vs veh, EDEM3 / RFU, TMEM33 / Fold change vs veh, TMEM33 / RFU, WDR75 / Fold change vs veh, WDR75 / RFU, AHCTF1 / Fold change vs veh, AHCTF1 / RFU, TFRC / Fold change vs veh, TFRC / RFU, ZDHHC17 / Fold change vs veh, ZDHHC17 / RFU, NOM1 / Fold change vs veh, NOM1 / RFU, ARL8B / Fold change vs veh, ARL8B / RFU, ZBTB11 / Fold change vs veh, ZBTB11 / RFU, TAMM41 / Fold change vs veh, TAMM41 / RFU, KIAA1704 /// LOC100996395 / Fold change vs veh, KIAA1704 /// LOC100996395 / RFU, ING1 / Fold change vs veh, ING1 / RFU, TRMT61B / Fold change vs veh, TRMT61B / RFU, FUBP3 / Fold change vs veh, FUBP3 / RFU, TP53 / Fold change vs veh, TP53 / RFU, TNKS2 / Fold change vs veh, TNKS2 / RFU, ZFP14 / Fold change vs veh, ZFP14 / RFU, ACTR2 / Fold change vs veh, ACTR2 / RFU, PPP3R1 / Fold change vs veh, PPP3R1 / RFU, PIK3R1 / Fold change vs veh, PIK3R1 / RFU, HNRNPA1 / Fold change vs veh, HNRNPA1 / RFU, RNF170 / Fold change vs veh, RNF170 / RFU, ZNF28 / Fold change vs veh, ZNF28 / RFU, RNGTT / Fold change vs veh, RNGTT / RFU, OGT / Fold change vs veh, OGT / RFU, BRD1 / Fold change vs veh, BRD1 / RFU, MARS / Fold change vs veh, MARS / RFU, ZNF655 / Fold change vs veh, ZNF655 / RFU, FAHD1 / Fold change vs veh, FAHD1 / RFU, BDP1 / Fold change vs veh, BDP1 / RFU, LRRCC1 / Fold change vs veh, LRRCC1 / RFU, ARID1A / Fold change vs veh, ARID1A / RFU, ZNF146 / Fold change vs veh, ZNF146 / RFU, ZNF330 / Fold change vs veh, ZNF330 / RFU, GPN3 / Fold change vs veh, GPN3 / RFU, C9orf123 / Fold change vs veh, C9orf123 / RFU, N4BP2L2 / Fold change vs veh, N4BP2L2 / RFU, ARFIP1 / Fold change vs veh, ARFIP1 / RFU, FAM179B / Fold change vs veh, FAM179B / RFU, BCL10 / Fold change vs veh, BCL10 / RFU, UHRF1BP1L / Fold change vs veh, UHRF1BP1L / RFU, BET1 / Fold change vs veh, BET1 / RFU, CNOT2 / Fold change vs veh, CNOT2 / RFU, ZNF268 / Fold change vs veh, ZNF268 / Fold change vs veh, ZNF507 / RFU, DGCR2 / Fold change vs veh, DGCR2 / RFU, WDSUB1 / Fold change vs veh, WDSUB1 / Fold change vs veh, HSP90B1 /// MIR3652 / RFU, ADSS / Fold change vs veh, ADSS / RFU, GK / Fold change vs veh, GK / RFU, ZNF148 / Fold change vs veh, ZNF148 / RFU, TAF9 / Fold change vs veh, TAF9 / RFU, SLC1A5 / Fold change vs veh, SLC1A5 / RFU, SLMO2 / Fold change vs veh, SLMO2 / RFU, ABCC4 / Fold change vs veh, ABCC4 / RFU, LOC101060439 /// RAP1B / Fold change vs veh, LOC101060439 /// RAP1B / RFU, RFX7 / Fold change vs veh, RFX7 / RFU, GTPBP10 / Fold change vs veh, GTPBP10 / RFU, CNEP1R1 / Fold change vs veh, CNEP1R1 / RFU, BIVM-ERCC5 /// ERCC5 / Fold change vs veh, BIVM-ERCC5 /// ERCC5 / RFU, ILF3 / Fold change vs veh, ILF3 / RFU 11762660_at / Fold change /veh 11762660_at / RFU VCAN (11757783_s_at) / Fold change /veh VCAN (11757783_s_at) / RFU DDX43 (11728927_at) / Fold change /veh DDX43 (11728927_at) / RFU KRT8 (11758188_x_at) / Fold change /veh KRT8 (11758188_x_at) / RFU NKD1 (11759106_at) / Fold change /veh NKD1 (11759106_at) / RFU SRD5A1 (11742802_a_at) / Fold change /veh SRD5A1 (11742802_a_at) / RFU TPSAB1 /// TPSB2 (11721975_s_at) / Fold change /veh TPSAB1 /// TPSB2 (11721975_s_at) / RFU GSTM3 (11746129_a_at) / Fold change /veh GSTM3 (11746129_a_at) / RFU IL23R (11737362_x_at) / Fold change /veh IL23R (11737362_x_at) / RFU TMEM51 (11727254_a_at) / Fold change /veh TMEM51 (11727254_a_at) / RFU PIWIL2 (11732686_x_at) / Fold change /veh PIWIL2 (11732686_x_at) / RFU ORM1 (11744905_x_at) / Fold change /veh ORM1 (11744905_x_at) / RFU CCDC152 (11743942_at) / Fold change /veh CCDC152 (11743942_at) / RFU ECM1 (11717891_a_at) / Fold change /veh ECM1 (11717891_a_at) / RFU IL23R (11748794_a_at) / Fold change /veh IL23R (11748794_a_at) / RFU TNFAIP8L3 (11732012_x_at) / Fold change /veh TNFAIP8L3 (11732012_x_at) / RFU MBOAT4 (11741988_at) / Fold change /veh MBOAT4 (11741988_at) / RFU 11764193_at / Fold change /veh 11764193_at / RFU TMEM53 (11763286_at) / Fold change /veh TMEM53 (11763286_at) / RFU MAGEB2 (11727129_at) / Fold change /veh MAGEB2 (11727129_at) / RFU TMEM200A (11744735_a_at) / Fold change /veh TMEM200A (11744735_a_at) / RFU CCDC152 (11751479_a_at) / Fold change /veh CCDC152 (11751479_a_at) / RFU FAM211A (11726209_a_at) / Fold change /veh FAM211A (11726209_a_at) / RFU RGS16 (11746705_a_at) / Fold change /veh RGS16 (11746705_a_at) / RFU VCAN (11755009_s_at) / Fold change /veh VCAN (11755009_s_at) / RFU RHOB (11743442_s_at) / Fold change /veh RHOB (11743442_s_at) / RFU RGS16 (11720943_a_at) / Fold change /veh RGS16 (11720943_a_at) / RFU RGS16 (11720944_at) / Fold change /veh RGS16 (11720944_at) / RFU, VPS4B / Fold change vs veh, VPS4B / RFU, CREB1 / Fold change vs veh, CREB1 / RFU, DNAJC13 / Fold change vs veh, DNAJC13 / RFU, GNAQ / Fold change vs veh, GNAQ / RFU, CDK5R1 / Fold change vs veh, CDK5R1 / RFU, ZRANB3 / Fold change vs veh, ZRANB3 / RFU, CUL4A / Fold change vs veh, CUL4A / RFU, CCNY / Fold change vs veh, CCNY / RFU, UFL1 / Fold change vs veh, UFL1 / RFU, COG3 / Fold change vs veh, COG3 / RFU, DIAPH2 / Fold change vs veh, DIAPH2 / RFU, SKA2 / Fold change vs veh, SKA2 / RFU, AFF3 / Fold change vs veh, AFF3 / RFU, LMF1 / Fold change vs veh, LMF1 / RFU, IPO11 / Fold change vs veh, IPO11 / RFU, DFFB / Fold change vs veh, DFFB / RFU, FOXP1 / Fold change vs veh, FOXP1 / RFU, CARD8 / Fold change vs veh, CARD8 / RFU, STRN3 / Fold change vs veh, STRN3 / RFU, ADK / Fold change vs veh, ADK / RFU, RASSF2 / Fold change vs veh, RASSF2 / RFU, WIPF1 / Fold change vs veh, WIPF1 / RFU, LARP1B / Fold change vs veh, LARP1B / RFU, RASA1 / Fold change vs veh, RASA1 / RFU, RB1 / Fold change vs veh, RB1 / RFU, PPFIA1 / Fold change vs veh, PPFIA1 / RFU, MAT2A / Fold change vs veh, MAT2A / RFU, CCT5 / Fold change vs veh, CCT5 / RFU, WDR92 / Fold change vs veh, WDR92 / RFU, CUX1 / Fold change vs veh, CUX1 / RFU, TTC7A / Fold change vs veh, TTC7A / RFU, TMEM135 / Fold change vs veh, TMEM135 / RFU, DEPTOR / Fold change vs veh, DEPTOR / RFU, CPM / Fold change vs veh, CPM / RFU, DNAJB6 / Fold change vs veh, DNAJB6 / RFU, CACNA2D3 / Fold change vs veh, CACNA2D3 / RFU, DTX4 / Fold change vs veh, DTX4 / RFU, TFCP2 / Fold change vs veh, TFCP2 / RFU, GMCL1 /// GMCL1P1 / Fold change vs veh, GMCL1 /// GMCL1P1 / RFU, AEBP2 / Fold change vs veh, AEBP2 / RFU, SNHG1 /// SNORD22 /// SNORD25 /// SNORD26 /// SNORD27 /// SNORD28 /// SNORD29 /// SNORD31 / Fold change vs veh, SNHG1 /// SNORD22 /// SNORD25 /// SNORD26 /// SNORD27 /// SNORD28 /// SNORD29 /// SNORD31 / Fold change (Aza/veh), C12orf56 (ProbeSet 11735607_a_at) / Fold change (ACY-1035/veh), C12orf56 (ProbeSet 11735607_a_at) / Fold change (Aza/veh), FGFR1OP (ProbeSet 11751329_s_at) / Fold change (ACY-1035/veh), FGFR1OP (ProbeSet 11751329_s_at) / Fold change (Aza/veh), VPS36 (ProbeSet 11739960_a_at) / Fold change (ACY-1035/veh), VPS36 (ProbeSet 11739960_a_at) / RFU SYPL1 (11715823_x_at) / Fold change /veh SYPL1 (11715823_x_at) / RFU IGFBP7 (11715501_s_at) / Fold change /veh IGFBP7 (11715501_s_at) / RFU REEP3 (11722064_at) / Fold change /veh REEP3 (11722064_at) / RFU IGLL1 (11728026_x_at) / Fold change /veh IGLL1 (11728026_x_at): dose or concentration left out as unconfirmed
Conditions: ProbeSet 11741311_a_at; LIST B

## Nc1ccc(-c2cccs2)cc1NC(=O)c1ccc2c(c1)cc(C1CC1)n2CCN1CCOCC1 [ACY-1035]
  Fold change vs veh, ZNF655: 0.99
